Assay results from patent US10525139B2, “Folate-conjugated molecules for delivery of toxic small molecule inhibitors to cancer cells and methods of use” (priority 2014, dated 2020).
Entries after “also recorded” stand apart in the source; their conditions may differ.

How the values were obtained:
Type in all cases: cell-based, human
NOTCH1 [1] = experiment: NOTCH1 cell surface staining by flow cytometry; settings: T-ALL cells; for NOTCH1 expression on the cell surface: 24 hours
From the text: (§1) We previously described that the SERCA inhibitors thapsigargin and cyclopiazonic acid impair NOTCH1 maturation leading to an accumulation of full-length, unprocessed polypeptides in the endoplasmic reticulum/Golgi subcellular compartment. An immediate consequence of SERCA inhibition is a decrement in NOTCH1 protein display on the surface of T-ALL cells. […] To further support the hypothesis that Thap-OH impairs mutant NOTCH1 maturation, we evaluated levels of full-length, transmembrane and activated NOTCH1 (ICN1) by WB. Lysates from T-ALL cell lines treated with 1 μM Thap-OH were immunoblotted with an antibody specific for the cytoplasmic portion of NOTCH1 that recognizes both unprocessed NOTCH1 (FL-N1) (˜270 kDa) and the furin-processed transmembrane subunit (TM-N1) (˜110 kDa).
The NOTCH loss was measured via flow cytometry. […] The recapitulation of the thapsigargin effect by JQ-FT is hypothesized to be due to the delivery strategy introduced by folate. […] Here cell growth was assessed using the Promega Cell-Titer Glo ATP-based assay (Promega, Madison, Wis., USA). Luminescence was measured using a Fluostar Omega instrument (BMG-labtech, Ortenberg, Germany).

NOTCH1 [2] = experiment: NOTCH1 processing and activation by western blot (FL-N1, TM-N1, ICN1); settings: 24 h
From the text: as §1
Both Folate-Thap (JQ-FT) and Thap-OH were tested in T-ALL cell lines with 24 h treatment. […] Lysates were prepared after treatment with indicated doses of thapsigargin, JQ-FT or Thap-OH for 24 hr. The blot shown was stained with an antibody against the C-terminus of NOTCH1 that recognizes both the furin-processed NOTCH1 transmembrane subunit (TM) and the unprocessed NOTCH1 precursor (FL) (FIG. 2A). GAPDH was used as a loading control. Western blots were stained with antibodies specific for γ-secretase-cleaved NOTCH 1 ([…], Cell Signaling, Beverly, Mass., USA), or the C-terminus of NOTCH1 (SC-6014 (C-20) Santa Cruz Biotechnology, Santa Cruz, Calif., USA). Control stains were carried out with antibodies specific for GAPDH (137179, Santa Cruz Biotechnology). Blots were developed with anti-rabbit-HRP (NA9340V, Amersham, Pittsburgh, Pa., USA) or anti-mouse-HRP (NA9340V or NA9310V, Amersham). Staining was quantified using ImageQuant TI V 7.0 (GE Health Care, Piscataway, N.J., USA).

NOTCH1 target genes = experiment: NOTCH1 target gene expression by RT-PCR in T-ALL cell lines; settings: T-ALL cells (ALL/SIL, DND41), 24 hours
Experimental: Errors bars denote mean±SD of 4 replicates. […] The blot was stained with an antibody against the C-terminus of NOTCH1 that recognizes both the furin-processed NOTCH1 transmembrane subunit (TM) and the unprocessed NOTCH1 precursor (FL). The immunoblot was also stained with anti-ICN1 antibody. GAPDH was used as a loading control. […] Error bars indicate the mean±SD of 4 replicates. Data were analyzed using the ΔΔCT method and plotted as a percentage relative to the control gene RPL13A. Statistical significance among groups for treated vs. vehicle (DMSO) samples (***P≤0.0001) was determined by one-way ANOVA with Bonferroni's correction for multiple comparison testing. […] The blot was stained with an antibody against the C-terminus of NOTCH1 (N1) that recognizes both the furin-processed NOTCH1 transmembrane subunit (TM). GAPDH was used as a loading control. […] Cells were probed with an anti-NOTCH1 antibody (green) and nuclei were counterstained with DAPI. […] Error bars indicate the mean±SD of 4 replicates. Data were analyzed using the ΔΔCT method and plotted as a percentage relative to the control gene RPL13A. Statistical significance (***P≤0.001. ****P≤0.0001) for treated vs. vehicle (DMSO) was determined by one-way ANOVA with Bonferroni's correction for multiple comparison testing. […]

T-ALL cell lines = experiment: T-ALL cell viability / growth (ATP content, Cell-Titer Glo)

For `C/C=C(/C)C(=O)O[C@H]1C(C)=C2C([C@@H]1OC(=O)CCCCCCC)[C@@](C)(OC(C)=O)C[C@H](OC(=O)CC[C@H](NC(=O)c1ccc(NCc3cnc4nc(N)[nH]c(=O)c4n3)cc1)C(=O)O)[C@@]1(O)[C@H]2OC(=O)[C@@]1(C)O` (stereo partly shown) [JQ-FT], the “effect on cell surface NOTCH1 compared with thapsigargin” value (NOTCH1 [1]) was “more similar to thapsigargin at 20 uM”, the “NOTCH1 expression on the cell surface” value (NOTCH1 [1]) was “show NOTCH loss” and the “NOTCH1 expression on the cell surface” value (NOTCH1 [1]; listed as Folate-Thap) was “loss of Notch in a manner similar to thapsigargin”. The “furin-processed transmembrane NOTCH1 subunit (TM-N1) level” value (NOTCH1 [2]; T-ALL cell lines with HD mutations, Thap-OH at 1 μM) was “loss of trans-membrane NOTCH; also recorded: decrement of transmembrane NOTCH1”, the ICN1 level (NOTCH1 [2]; T-ALL cell lines) was “Loss of ICN1” and the “unprocessed full-length NOTCH1 (FL-N1) level” value (NOTCH1 [2]; T-ALL cell lines) was “accumulation of full length NOTCH; also recorded: accumulation of full length NOTCH1”. For the same molecule, the “NOTCH1 target gene expression” value (NOTCH1 target genes) was “suppression of NOTCH1 target genes”, the cell cycle (T-ALL cell lines; T-ALL cell lines, 10 μM) was “G1 cell cycle arrest” and the “induction of apoptosis in T-ALL cell lines” value (T-ALL cell lines; T-ALL cell lines, 10 μM) was “rapid induction of apoptosis”. The “effect on cell viability in FR-overexpressing cell lines” value (T-ALL cell lines; cell lines overexpressing FR1 or FR2) was “greater effect on cell viability”.
